Assay results published in patent publication US10392630B2, “Plants having increased tolerance to herbicides” (BASF AGRO B.V., priority 2013, dated 2019).
“And” between values parts separate entries of the source, which are not always exact repeats. Equal values may be shown once.

Tests used:
[1] = molecular target: Amaranthus wildtype PPO (AMARE), PPO herbicide sensitive PPO2 (Amaranthus tuberculatus, UniProt Q0NZW9); experiment: PPO enzyme assay, dose-response (fluorescence), wildtype Amaranthus PPO2; type: biochemical; settings: IC50 (M), Table 3a
Chain of Amaranthus wildtype PPO (AMARE), PPO herbicide sensitive PPO2 (Q0NZW9 entry or part of it): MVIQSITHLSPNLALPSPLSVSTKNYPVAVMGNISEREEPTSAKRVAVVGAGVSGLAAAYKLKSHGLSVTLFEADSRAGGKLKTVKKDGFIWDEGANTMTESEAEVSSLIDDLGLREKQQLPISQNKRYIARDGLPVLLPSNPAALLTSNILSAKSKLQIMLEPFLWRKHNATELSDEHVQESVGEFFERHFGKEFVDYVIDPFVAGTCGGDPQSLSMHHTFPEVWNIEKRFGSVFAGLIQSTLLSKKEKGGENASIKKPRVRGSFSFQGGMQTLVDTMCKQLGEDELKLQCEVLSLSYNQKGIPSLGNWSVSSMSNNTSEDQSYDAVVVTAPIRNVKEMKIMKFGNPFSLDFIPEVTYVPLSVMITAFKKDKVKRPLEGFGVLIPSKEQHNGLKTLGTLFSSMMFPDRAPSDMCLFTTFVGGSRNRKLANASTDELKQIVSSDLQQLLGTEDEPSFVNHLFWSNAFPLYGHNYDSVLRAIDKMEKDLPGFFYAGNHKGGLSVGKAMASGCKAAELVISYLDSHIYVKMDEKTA

[2] = system: Alopecurus wildtype PPO (ALOMY), PPO herbicide sensitive PPO2, SEQ ID NO 2; experiment: PPO enzyme assay, dose-response (fluorescence), wildtype Alopecurus PPO2; type: biochemical, Alopecurus myosuroides
[3] = system: transgenic Arabidopsis thaliana plants; experiment: Growth inhibition of transgenic Arabidopsis in 48-well plates, tolerance factor (Table 5, FIG. 2); type: in vivo; settings: growth inhibition seven to ten days after seeding
[4] = system: transgenic soybean cv Jake cuttings; experiment: Herbicide injury of transgenic soybean cuttings from T0 plants (Table 7, FIG. 4); type: in vivo, Glyceine max; settings: V2 spray, 1 week after treatment
[5] = system: transgenic T0 corn events; experiment: Herbicide injury of transgenic T0 corn events, greenhouse spray (Table 6a); type: in vivo, Zea mays; settings: 7 days after treatment

C#CCN1C(=O)C(F)(F)Oc2cc(F)c(-n3c(=O)n(C)c(=S)n(C)c3=O)cc21 [BAS 850H]
IC50 ([1]; PPO herbicide sensitive PPO2 AC): 5.96e-11 M | IC50 ([1]; PPO herbicide sensitive PPO2 WC): 5.17e-10 M | IC50 ([2]; Table 3a, PPO herbicide sensitive PPO2, SEQ ID NO 2, ALOMY): 0.0364 nM | IC50 ([2]; Table 3b, SEQ ID NO 2, WT): 0.0364 nM | TF (Tolerance Factor), relative tolerance rate (non-transgenic = 1.0) ([3]; transgenic Arabidopsis Am_PPO2_F438I): >50 | TF (Tolerance Factor), relative tolerance rate (non-transgenic = 1.0) ([3]; transgenic Arabidopsis Am_PPO2_R137A): >50 | TF (Tolerance Factor), relative tolerance rate (non-transgenic = 1.0) ([3]; transgenic Arabidopsis Am_PPO2_R137A_F438I): >50 | TF (Tolerance Factor), relative tolerance rate (non-transgenic = 1.0) ([3]; transgenic Arabidopsis Am_PPO2_R137A_F438L): >50 | TF (Tolerance Factor), relative tolerance rate (non-transgenic = 1.0) ([3]; transgenic Arabidopsis Am_PPO2_R137A_F438M): >50 | TF (Tolerance Factor), relative tolerance rate (non-transgenic = 1.0) ([3]; transgenic Arabidopsis Am_PPO2_R137A_F438V): >50 | TF (Tolerance Factor), relative tolerance rate (non-transgenic = 1.0) ([3]; transgenic Arabidopsis Am_PPO2_R137I): >50 | TF (Tolerance Factor), relative tolerance rate (non-transgenic = 1.0) ([3]; transgenic Arabidopsis Am_PPO2_R137L_F438I): >50 | TF (Tolerance Factor), relative tolerance rate (non-transgenic = 1.0) ([3]; transgenic Arabidopsis Am_PPO2_R137L_F438L): >50 | TF (Tolerance Factor), relative tolerance rate (non-transgenic = 1.0) ([3]; transgenic Arabidopsis Am_PPO2_R137L_F438M): >50 | TF (Tolerance Factor), relative tolerance rate (non-transgenic = 1.0) ([3]; transgenic Arabidopsis Am_PPO2_R137M_F438I): >50 | TF (Tolerance Factor), relative tolerance rate (non-transgenic = 1.0) ([3]; transgenic Arabidopsis Am_PPO2_R137M_F438L): >50 | TF (Tolerance Factor), relative tolerance rate (non-transgenic = 1.0) ([3]; transgenic Arabidopsis Am_PPO2_R137M_F438M): >50 | TF (Tolerance Factor), relative tolerance rate (non-transgenic = 1.0) ([3]; transgenic Arabidopsis Am_PPO2_R137M_F438V): >50 | Herbicide injury ([4]; AlomyPPO1_R138A T0 cuttings, BAS 850H 25 g ai/ha): 5 and 9 | Herbicide injury ([4]; AlomyPPO1_R138A T0 cuttings, BAS 850H 50 g ai/ha): 8 and 9 | Herbicide injury ([4]; AlomyPPO1_R138A_Y420M T0 cuttings, BAS 850H 25 g ai/ha): 7 | Herbicide injury ([4]; AlomyPPO1_R138A_Y420M T0 cuttings, BAS 850H 50 g ai/ha): 9 | Herbicide injury ([4]; AlomyPPO1_R138L T0 cuttings, BAS 850H 25 g ai/ha): 8 and 9 and 6 | Herbicide injury ([4]; AlomyPPO1_R138L T0 cuttings, BAS 850H 50 g ai/ha): 8 and 7 and 9 | Herbicide injury ([4]; AlomyPPO1_Y420M T0 cuttings, BAS 850H 25 g ai/ha): 6 and 5 and 9 | Herbicide injury ([4]; AlomyPPO1_Y420M T0 cuttings, BAS 850H 50 g ai/ha): 8 and 6 and 9 | Herbicide injury ([4]; AlomyPPO1_Y420V T0 cuttings, BAS 850H 50 g ai/ha): 9 and 7 and 8 and 5 | Herbicide injury ([4]; AlomyPPO2 T0 cuttings, BAS 850H 25 g ai/ha): 7 and 8 and 9 | Herbicide injury ([4]; AlomyPPO2 T0 cuttings, BAS 850H 50 g ai/ha): 9 and 8 and 7 | Herbicide injury ([4]; AlomyPPO2_R137A T0 cuttings, BAS 850H 25 g ai/ha): 7 | Herbicide injury ([4]; AlomyPPO2_R137A T0 cuttings, BAS 850H 50 g ai/ha): 7 | Herbicide injury ([4]; AlomyPPO2_R137A_F438I T0 cuttings, BAS 850H 25 g ai/ha): 4 and 5 and 7 and 8 and 6 | Herbicide injury ([4]; AlomyPPO2_R137A_F438I T0 cuttings, BAS 850H 50 g ai/ha): 5 and 6 and 7 and 8 | Herbicide injury ([4]; AlomyPPO2_R137A_F438I T0 cuttings, BAS 850H 75 g ai/ha): 5 and 8 and 7 and 9 and 6 | Herbicide injury ([4]; AlomyPPO2_R137A_F438L T0 cuttings, BAS 850H 25 g ai/ha): 6 and 9 and 8 | Herbicide injury ([4]; AlomyPPO2_R137A_F438L T0 cuttings, BAS 850H 50 g ai/ha): 7 and 9 and 5 | Herbicide injury ([4]; AlomyPPO2_R137A_F438L T0 cuttings, BAS 850H 75 g ai/ha): 7 and 9 and 5 | Herbicide injury ([4]; AlomyPPO2_R137A_F438V T0 cuttings, BAS 850H 50 g ai/ha): 4 and 5 and 6 | Herbicide injury ([4]; AlomyPPO2_R137A_F438V T0 cuttings, BAS 850H 75 g ai/ha): 5 and 7 and 6 | Herbicide injury ([4]; AlomyPPO2_R137I T0 cuttings, BAS 850H 50 g ai/ha): 6 and 5 and 7 and 9 | Herbicide injury ([4]; AlomyPPO2_R137L_F438I T0 cuttings, BAS 850H 25 g ai/ha): 8 and 9 | Herbicide injury ([4]; AlomyPPO2_R137L_F438I T0 cuttings, BAS 850H 50 g ai/ha): 9 and 8 | Herbicide injury ([4]; AlomyPPO2_R137L_F438I T0 cuttings, BAS 850H 75 g ai/ha): 9 and 8 | Herbicide injury ([4]; AlomyPPO2_R137M_F438L T0 cuttings, BAS 850H 50 g ai/ha): 7 and 4 and 5 | Herbicide injury ([4]; AlomyPPO2_R137M_F438L T0 cuttings, BAS 850H 75 g ai/ha): 7 and 6 and 5 | Herbicide injury ([4]; Wild type cuttings, BAS 850H 25 g ai/ha): 8 | Herbicide injury ([4]; Wild type cuttings, BAS 850H 50 g ai/ha): 9 | Herbicide injury ([4]; Wild type cuttings, BAS 850H 75 g ai/ha): 9 | Herbicide injury, 0 to 9 rating scale ([5]; T0 corn events AlomyPPO1_R138A, 50 g ai/ha + 1% (v/v) MSO at V2 stage): 6 | Herbicide injury, 0 to 9 rating scale ([5]; T0 corn events AlomyPPO1_R138A_Y420M, 50 g ai/ha + 1% (v/v) MSO at V2 stage): 5 and 6 | Herbicide injury, 0 to 9 rating scale ([5]; T0 corn events AlomyPPO1_R138A_Y420V, 50 g ai/ha + 1% (v/v) MSO at V2 stage): 6 and 5 | Herbicide injury, 0 to 9 rating scale ([5]; T0 corn events AlomyPPO1_R138A_Y420V, 100 g ai/ha + 1% (v/v) MSO at V2 stage): 5 | Herbicide injury, 0 to 9 rating scale ([5]; T0 corn events AlomyPPO1_Y420M, 50 g ai/ha + 1% (v/v) MSO at V2 stage): 5 and 6 | Herbicide injury, 0 to 9 rating scale ([5]; T0 corn events AlomyPPO1_Y420M, 100 g ai/ha + 1% (v/v) MSO at V2 stage): 6 | Herbicide injury, 0 to 9 rating scale ([5]; T0 corn events AlomyPPO1_Y420V, 50 g ai/ha + 1% (v/v) MSO at V2 stage): 5 and 4 and 6 | Herbicide injury, 0 to 9 rating scale ([5]; T0 corn events AlomyPPO1_Y420V, 100 g ai/ha + 1% (v/v) MSO at V2 stage): 6 | Herbicide injury, 0 to 9 rating scale ([5]; T0 corn events AlomyPPO2, 50 g ai/ha + 1% (v/v) MSO at V2 stage): 6 | Herbicide injury, 0 to 9 rating scale ([5]; T0 corn events AlomyPPO2, 75 g ai/ha + 1% (v/v) MSO at V2 stage): 6 | Herbicide injury, 0 to 9 rating scale ([5]; T0 corn events AlomyPPO2_R137A, 50 g ai/ha + 1% (v/v) MSO at V2 stage): 5 and 4 and 6 | Herbicide injury, 0 to 9 rating scale ([5]; T0 corn events AlomyPPO2_R137A, 75 g ai/ha + 1% (v/v) MSO at V2 stage): 5 | Herbicide injury, 0 to 9 rating scale ([5]; T0 corn events AlomyPPO2_R137A_F438I, 50 g ai/ha + 1% (v/v) MSO at V2 stage): 4 | Herbicide injury, 0 to 9 rating scale ([5]; T0 corn events AlomyPPO2_R137A_F438I, 100 g ai/ha + 1% (v/v) MSO at V2 stage): 4 and 5 | Herbicide injury, 0 to 9 rating scale ([5]; T0 corn events AlomyPPO2_R137A_F438M, 100 g ai/ha + 1% (v/v) MSO at V2 stage): 5 | Herbicide injury, 0 to 9 rating scale ([5]; T0 corn events AlomyPPO2_R137A_F438V, 100 g ai/ha + 1% (v/v) MSO at V2 stage): 6 | Herbicide injury, 0 to 9 rating scale ([5]; T0 corn events AlomyPPO2_R137I, 100 g ai/ha + 1% (v/v) MSO at V2 stage): 4 | Herbicide injury, 0 to 9 rating scale ([5]; T0 corn events AlomyPPO2_R137M_F438I, 75 g ai/ha + 1% (v/v) MSO at V2 stage): 3 and 4 | Herbicide injury, 0 to 9 rating scale ([5]; T0 corn events tp-SorbiPPO2::AlomyPPO2, 50 g ai/ha + 1% (v/v) MSO at V2 stage): 5 and 6 | Herbicide injury, 0 to 9 rating scale ([5]; T0 corn events tp-SorbiPPO2::AlomyPPO2, 100 g ai/ha + 1% (v/v) MSO at V2 stage): 5 | Herbicide injury, 0 to 9 rating scale ([5]; T0 corn events tp-SorbiPPO2::AlomyPPO2_F431V, 50 g ai/ha + 1% (v/v) MSO at V2 stage): 4 and 5 | Herbicide injury, 0 to 9 rating scale ([5]; T0 corn events tp-SorbiPPO2::AlomyPPO2_F431V, 100 g ai/ha + 1% (v/v) MSO at V2 stage): 5 and 6 | Herbicide injury, 0 to 9 rating scale ([5]; T0 corn events tp-SorbiPPO2::AlomyPPO2_R130A, 50 g ai/ha + 1% (v/v) MSO at V2 stage): 4 and 5 | Herbicide injury, 0 to 9 rating scale ([5]; T0 corn events tp-SorbiPPO2::AlomyPPO2_R130A_F431V, 100 g ai/ha + 1% (v/v) MSO at V2 stage): 7 and 6 | Herbicide injury, 0 to 9 rating scale ([5]; T0 corn events tp-SorbiPPO2::c-AlomyPPO2_R130A_F431M, 50 g ai/ha + 1% (v/v) MSO at V2 stage): 4 and 5 | Herbicide injury, 0 to 9 rating scale ([5]; T0 corn events tp-SorbiPPO2::c-AlomyPPO2_R130L_F431V, 50 g ai/ha + 1% (v/v) MSO at V2 stage): 4 and 3 and 5 | Herbicide injury, 0 to 9 rating scale ([5]; T0 corn events tp-ZeamaPPO2::AlomyPPO2, 50 g ai/ha + 1% (v/v) MSO at V2 stage): 5 and 6 | Herbicide injury, 0 to 9 rating scale ([5]; T0 corn events tp-ZeamaPPO2::AlomyPPO2_F431V, 50 g ai/ha + 1% (v/v) MSO at V2 stage): 3 and 4 and 5 | Herbicide injury, 0 to 9 rating scale ([5]; T0 corn events tp-ZeamaPPO2::AlomyPPO2_F431V, 100 g ai/ha + 1% (v/v) MSO at V2 stage): 4 | Herbicide injury, 0 to 9 rating scale ([5]; T0 corn events tp-ZeamaPPO2::AlomyPPO2_R130A, 50 g ai/ha + 1% (v/v) MSO at V2 stage): 7 and 4 and 5 and 6 | Herbicide injury, 0 to 9 rating scale ([5]; T0 corn events tp-ZeamaPPO2::AlomyPPO2_R130A, 100 g ai/ha + 1% (v/v) MSO at V2 stage): 5 | Herbicide injury, 0 to 9 rating scale ([5]; T0 corn events tp-ZeamaPPO2::AlomyPPO2_R130A_F431V, 50 g ai/ha + 1% (v/v) MSO at V2 stage): 4 and 5 | Herbicide injury, 0 to 9 rating scale ([5]; T0 corn events tp-ZeamaPPO2::c-AlomyPPO2_R130L_F431V, 50 g ai/ha + 1% (v/v) MSO at V2 stage): 3 and 4 and 5 and 6 | Herbicide injury, 0 to 9 rating scale ([5]; T0 corn events tp-ZeamaPPO2::c-AlomyPPO2_R130M_F431V, 50 g ai/ha + 1% (v/v) MSO at V2 stage): 3 and 4 and 2 | Herbicide injury, 0 to 9 rating scale ([5]; untransformed wild type corn, 50 g ai/ha + 1% (v/v) MSO at V2 stage): 6 | Herbicide injury, 0 to 9 rating scale ([5]; untransformed wild type corn, 75 g ai/ha + 1% (v/v) MSO at V2 stage): 6 | Herbicide injury, 0 to 9 rating scale ([5]; untransformed wild type corn, 100 g ai/ha + 1% (v/v) MSO at V2 stage): 6
